For assay [1], the system named is thrombin generation in human PRP. The assay is described as follows: Studies regarding measurement conditions: ADP alone on thrombin generation in human PRP. Type of assay: cell-based. The note with it: ADP final concentration 5, 10 or 20 μM, no TF.
Assay [2] shares this test system. The note with it: Example 2; Edoxaban 40, 80 ng/mL; Ticagrelor 3 μg/mL; ADP 10 μM, TF 0.25 pM.
Experimental: The obtained blood was centrifuged at room temperature at 150×g for 10 minutes, so that a supernatant was obtained as PRP. The residue obtained after separation of the PRP was centrifuged at room temperature at 2000×g for 10 minutes, so that a supernatant was obtained as platelet poor plasma (hereinafter also referred to as “PPP”). The PRP was diluted with the PPP, so that the number of platelets in the PRP could be 2×10^5 platelets/μL. The obtained PRP was left at 16° C. for 30 minutes or more, and it was then used for the measurement of thrombin generation.
10 μL of a 1% DMSO-containing saline was added to a 96-well plate, and 70 μL of the above obtained human PRP was then added thereto. […]
Five to seven minutes later, 20 μL of the heated FluCa-kit liquid (manufactured by Thrombinoscope BV) was added to the well, so that the reaction was initiated. Using a fluorophotometer (Fluoroskan Ascent, manufactured by Thermo Scientific), the fluorescence intensity at ex 390 nm/em 460 nm was measured at 37° C. for 150 minutes, and using Thrombinoscope software (manufactured by Thrombinoscope BV), Lag time (min), Time to Peak (min), ETP (nM×min), Peak (nM), and MaxR (nM/min) were calculated. […]
Subsequently, individual parameters were calculated in the same manner as that in the above “Studies regarding measurement conditions.” […]

SMILES strings stand for the structures. Entries after “also recorded” stand apart in the source; their conditions may differ.

Consider `Nc1ncnc2c1ncn2[C@@H]1O[C@H](COP(=O)(O)OP(=O)(O)O)[C@@H](O)[C@H]1O` [ADP, adenosine diphosphate], for which the “Effect of ADP alone on thrombin generation” value in assay [1] is reported as “provokes thrombin generation”.

With `CCCSc1nc(N[C@@H]2C[C@H]2c2ccc(F)c(F)c2)c2nnn([C@@H]3C[C@H](OCCO)[C@@H](O)[C@H]3O)c2n1` [Ticagrelor], the “Effect on thrombin generation, agent used alone compared to controls” value in assay [2] is “suppresses the generation of thrombin; also recorded: significantly suppresses thrombin generation, in terms of Peak, Time to Peak, and MaxR”.
